Read-outs that look alike come from different tables or passages of the source.
Legend:
[1] = tested on: human primary tumor cells; assay: Inhibition of primary tumor cell cultures vs low or high expression of the truncated form of NK1 receptor (Example 5; tumor type per table line); type: cell-based; settings: for Percentage of inhibition of cell cultures: 100 micromolar
Glioma = assay: Inhibition of primary tumor cell cultures (48 hours) vs NK1 receptor immunostaining (Example 1); type: cell-based; settings: Homo sapiens, 1 micromolar, read-out: Percentage of inhibition of cell cultures
Procedure: (§1) Cell cultures. To obtain tumor cells from human primary tumors we used the method described in De Bari et al. (De Bari et al. 2001). Briefly, small pieces of the tumors were digested into a hyaluronidase solution (Sigma-Aldrich, USA) at a concentration of 1 mg/ml during 15 minutes at 37°C, and then they were treated with 6 mg/ml of collagenase type IV (Invitrogen) during 2 hours at 37°C. Consecutively, cells were washed, and resuspended in the DMEM culture medium with high concentration of glucose (Dulbecco's Modified Eagle's Medium, Invitrogen) supplemented with 1% of antibiotics-antimycotics (Invitrogen) and with 1% of sodium pyruvate (Invitrogen), and the cells were seeded in culture slides at a concentration of 10.000 cells per square centimeter. When cells reached confluence, the adherent cells were separated using sterile trypsin at 0,5% (Invitrogen) and they were used among passages 3 and 9. For the assays shown next, tumor cells were seeded on slides at a concentration of 25.000 cells per well. A total of 6 wells containing the tumor cells were used as survival control. […] All the cultures were kept during 48 hours and later on recollected for their analysis.
(§2) Immunohistochemistry techniques. The presence of NK1 receptors was also analyzed using immunohistochemistry techniques. Briefly, a sample of each of the cultures of the cell lines used in the present invention, was centrifuged (5 minutes at 1.500 rpm) and the pellet obtained was dehydrated using increasing concentrations of ethanol and, finally, xylol. Then, said dehydrated samples were embedded in paraffin, creating a block of cells. Such paraffin blocks were cut with a microtome at 5 microns thickness, and were placed on microscope slides adequate to perform immunohistochemistry techniques. Consecutively, they were de-paraffinized by immersing them in xylol, to be finally hydrated using a solution containing decreasing concentrations of ethanol, and finally submerged them into water. […] After this, the samples were left to cool down at room temperature for 10 minutes. The endogenous peroxidase activity was blocked with 3% peroxide of hydrogen for 30 minutes at room temperature. After washing the samples with 0.05 M of Tris buffer, they were incubated with 10% non-immune pork serum at for 30 minutes at room temperature. To analyze the expression of NK1 receptors, the cellular samples were incubated in the presence of anti-NK1 antibodies (S8305, Sigma-Aldrich) diluted 1:1000, overnight at 4°C. Afterwards, the samples were washed in Tris buffer 0.05 M at room temperature. The next step was the addition of Envision System-HRP (Dako) reagents for 30 minutes at room temperature. Then, the samples were washed again in Tris buffer 0.05 M and the immunoreactivity was visualized through light microscopy with a chromogenic solution containing 3,3'-Diaminobenzidine (DAB+; Dako, USA). To differentiate the cell nuclei, they were slightly stained with hematoxylin. As negative control, it was used samples not incubated with the primary antibody anti-NK1, which was replaced by non-immune serum. All the samples were evaluated.
(§3) To value the immunostaining in each of the cases six cuts were performed to be analyzed by the immunohistochemistry technique. In each of the six cuts, it was counted cells in 20 fields (magnification 400x) using an Olympus microscope (model CX31). In each field it was counted the total number of cells and the number of cells presenting immunostaining, calculating afterwards the percentage of cells which presented immunostaining.

Neuroblastoma = assay: as above; type: cell-based; settings: Homo sapiens, 1 micromolar, read-out: Percentage of inhibition of cell cultures
Procedure: as §1, §2, §3

Endometrium carcinoma = assay: cells; settings: Homo sapiens, 1 micromolar
Procedure: as §1, §2, §3

[2] = tested on: Lung carcinoma (non small cell type); assay: Inhibition of primary tumor cell cultures (48 hours) vs NK1 receptor immunostaining (Example 1); type: cell-based; settings: Homo sapiens, 1 micromolar, read-out: Percentage of inhibition of cell cultures
Procedure: as §1, §2, §3

Ewing Sarcoma = assay: as above; type: cell-based; settings: Homo sapiens, 1 micromolar, read-out: Percentage of inhibition of cell cultures
Procedure: as §1, §2, §3

Leukemia B = assay: as above; type: cell-based; settings: Homo sapiens, 1 micromolar, read-out: Percentage of inhibition of cell cultures
Procedure: as §1, §2, §3

Renal cell carcinoma = assay: as above; type: cell-based; settings: Homo sapiens, 1 micromolar, read-out: Percentage of inhibition of cell cultures
Procedure: as §1, §2, §3

[3] = tested on: Urinary bladder carcinoma (transitional cell carcinoma); assay: Inhibition of primary tumor cell cultures vs Kras mutation (Example 2); type: cell-based, human; settings: Homo sapiens, 100 micromolar, read-out: Percentage of inhibition of cell cultures
Procedure: To obtain tumor cells from human primary tumors we used the method described in De Bari et al. (De Bari et al. 2001). Briefly, small pieces of the tumors were digested into a hyaluronidase solution (Sigma-Aldrich, USA) at a concentration of 1 mg/ml during 15 minutes at 37°C, and then they were treated with 6 mg/ml of collagenase type IV (Invitrogen) during 2 hours at 37°C. Consecutively, cells were washed, and resuspended in the DMEM culture medium with high concentration of glucose (Dulbecco's Modified Eagle's Medium, Invitrogen) supplemented with 1% of antibiotics-antimycotics (Invitrogen) and with 1% of sodium pyruvate (Invitrogen), and the cells were seeded in culture slides at a concentration of 10.000 cells per square centimeter. When cells reached confluence, the adherent cells were separated using sterile trypsin at 0,5% (Invitrogen) and they were used among passages 3 and 9. For the assays shown next, tumor cells were seeded on slides at a concentration of 25.000 cells per well. A total of 6 wells containing the tumor cells were used as survival control. […] All the cultures were kept during 48 hours and later on recollected for their analysis.
(§4) In each case the presence or not of mutations in K-ras gene was determined.
(§5) To determine the existence of mutations in the K-ras gene DNA from cancer tumor cells was extracted from samples obtained from the different cancer tumor cells, using DNA extraction kits from Takara (Madison, WI, US) or Ambion (Huntingdon, Cambridgeshire, United Kingdom), following the manufacturer's instructions, and as it has been previously published (Di Fiore F, et al. 2007). Consecutively it was analyzed by sequencing the exon 2 of the KRAS gene, , by means of PCR amplification from previously extracted cancer tumor DNA, using the following sense primer (SEQ ID NO. 15): 5'-[sequence]-3' and anti-sense primer (SEQ ID NO. 16): 5'-[sequence]-3'. After the purification using the Qiagen extraction kit, the PCR products were sequenced using the Big Dye Terminator Kit V3.1 (Applied Biosystems, Foster City, CA, U.S.) and an ABI Prism 377 or 3100 DNA sequencer (Applied Biosystems). The presence of a heterozygous mutation in the KRAS gene in cancer tumor cells of the cultures was defined as the appearance of a mutant peak of a height of at least a third of the wild type. All the sequence analysis were executed at least twice in two independent PCR.
The antibody against NK1 receptor (Table 16) was used at 1/50 concentration. The percentages of inhibition are expressed in percentage of variation in relation to control ± standard deviation.

[4] = tested on: Non Hodgkin Lymphoma T (diffuse T cell lymphoma); assay: as above; type: cell-based, human; settings: Homo sapiens, T-cell, 100 micromolar, read-out: Percentage of inhibition of cell cultures
Procedure: as §1, §4, §5
The percentages of inhibition are expressed in percentage of variation in relation to control ± standard deviation.

Myeloma = assay: Inhibition of primary tumor cell cultures (48 hours) vs NK1 receptor immunostaining (Example 1); type: cell-based; settings: Homo sapiens, 1 micromolar, read-out: Percentage of inhibition of cell cultures
Procedure: as §1, §2, §3

[5] = NK1 receptor immunostaining Group 1 (less than 20% of the cells)
[6] = NK1 receptor immunostaining Group 2 (20-80% of the cells)
[7] = NK1 receptor immunostaining Group 3 (more than 80% of the cells)
[8] = NK1 receptor immunostaining Intensity grade 1
[9] = NK1 receptor immunostaining Intensity grade 2
[10] = NK1 receptor immunostaining Intensity grade 3
[11] = Cases with Kras non-mutated (wild type)

CC(=O)N1CCN([C@H]2CCN(C(=O)N(C)[C@H](C)c3cc(C(F)(F)F)cc(C(F)(F)F)c3)[C@@H](c3ccc(F)cc3C)C2)CC1 [Casopitant]
Percentage of inhibition of cell cultures ([1]; Prostate carcinoma, Cases with high expression of the truncated form of NK1 receptor (Group B)): 94±4 percentage
Percentage of inhibition of cell cultures ([1]; Prostate carcinoma, Cases with low expression of the truncated form of NK1 receptor (Group A)): 23±6 percentage
Percentage of inhibition of cell cultures ([1]; Thyroid carcinoma (follicular carcinoma), Cases with high expression of the truncated form of NK1 receptor (Group B)): 93±4 percentage
Percentage of inhibition of cell cultures ([1]; Thyroid carcinoma (follicular carcinoma), Cases with low expression of the truncated form of NK1 receptor (Group A)): 23±3 percentage
Percentage of inhibition of cell cultures ([1]; Thyroid carcinoma (papillary carcinoma), Cases with high expression of the truncated form of NK1 receptor (Group B)): 94±5 percentage
Percentage of inhibition of cell cultures ([1]; Thyroid carcinoma (papillary carcinoma), Cases with low expression of the truncated form of NK1 receptor (Group A)): 24±5 percentage
Percentage of inhibition of cell cultures ([1]; Undifferentiated Pleomorphic Sarcoma (malignant fibrous histiocytoma grade 3), Cases with high expression of the truncated form of NK1 receptor (Group B)): 94±5 percentage
Percentage of inhibition of cell cultures ([1]; Undifferentiated Pleomorphic Sarcoma (malignant fibrous histiocytoma grade 3), Cases with low expression of the truncated form of NK1 receptor (Group A)): 25±4 percentage
Percentage of inhibition of cell cultures ([1]; Urinary bladder carcinoma (transitional cell carcinoma), Cases with high expression of the truncated form of NK1 receptor (Group B)): 95±7 percentage
Percentage of inhibition of cell cultures ([1]; Urinary bladder carcinoma (transitional cell carcinoma), Cases with low expression of the truncated form of NK1 receptor (Group A)): 25±4 percentage
inhibition of cell proliferation ([1]; cancer cell cultures that show more expression of the truncated form of NK1 receptor, compared, non-peptidic antagonists 100 micromolar, antibody 1/50): higher inhibition
inhibition at 1 µM (Glioma; [5]): 16 ± 3%
inhibition at 1 µM (Glioma; [6]): 46 ± 4%
inhibition at 1 µM (Glioma; [7]): 93 ± 5%
inhibition at 1 µM (Glioma; [8]): 36 ± 3%
inhibition at 1 µM (Glioma; [9]): 54 ± 5%
inhibition at 1 µM (Glioma; [10]): 91 ± 3%
inhibition at 1 µM (Neuroblastoma; [5]): 16 ± 2%
inhibition at 1 µM (Neuroblastoma; [6]): 45 ± 4%
inhibition at 1 µM (Neuroblastoma; [7]): 94 ± 4%
inhibition at 1 µM (Neuroblastoma; [8]): 35 ± 4%
inhibition at 1 µM (Neuroblastoma; [9]): 55 ± 5%
inhibition at 1 µM (Neuroblastoma; [10]): 94 ± 4%
inhibition at 1 µM (Endometrium carcinoma; read-out: Percentage of inhibition of cell cultures, NK1 receptor immunostaining Group 1 (less than 20% of the cells)): 16 ± 3%
inhibition at 1 µM (Endometrium carcinoma; read-out: Percentage of inhibition of cell cultures, NK1 receptor immunostaining Group 2 (20-80% of the cells)): 46 ± 3%
inhibition at 1 µM (Endometrium carcinoma; read-out: Percentage of inhibition of cell cultures, NK1 receptor immunostaining Group 3 (more than 80% of the cells)): 92 ± 3%
inhibition at 1 µM (Endometrium carcinoma; read-out: Percentage of inhibition of cell cultures, NK1 receptor immunostaining Intensity grade 1): 34 ± 5%
inhibition at 1 µM (Endometrium carcinoma; read-out: Percentage of inhibition of cell cultures, NK1 receptor immunostaining Intensity grade 2): 55 ± 5%
inhibition at 1 µM (Endometrium carcinoma; read-out: Percentage of inhibition of cell cultures, NK1 receptor immunostaining Intensity grade 3): 94 ± 4%
inhibition at 1 µM [2, 5]: 10 ± 2%
inhibition at 1 µM [2, 6]: 46 ± 2%
inhibition at 1 µM [2, 7]: 92 ± 5%
inhibition at 1 µM [2, 8]: 32 ± 4%
inhibition at 1 µM [2, 9]: 54 ± 4%
inhibition at 1 µM [2, 10]: 93 ± 3%
inhibition at 1 µM (Ewing Sarcoma; [5]): 15 ± 2%
inhibition at 1 µM (Ewing Sarcoma; [6]): 47 ± 5%
inhibition at 1 µM (Ewing Sarcoma; [7]): 93 ± 5%
inhibition at 1 µM (Ewing Sarcoma; [8]): 33 ± 4%
inhibition at 1 µM (Ewing Sarcoma; [9]): 54 ± 3%
inhibition at 1 µM (Ewing Sarcoma; [10]): 92 ± 4%
inhibition at 1 µM (Leukemia B; [5]): 17 ± 3%
inhibition at 1 µM (Leukemia B; [6]): 46 ± 5%
inhibition at 1 µM (Leukemia B; [7]): 94 ± 6%
inhibition at 1 µM (Leukemia B; [8]): 36 ± 3%
inhibition at 1 µM (Leukemia B; [9]): 52 ± 3%
inhibition at 1 µM (Leukemia B; [10]): 92 ± 5%
inhibition at 1 µM (Renal cell carcinoma; [5]): 16 ± 4%
inhibition at 1 µM (Renal cell carcinoma; [6]): 46 ± 3%
inhibition at 1 µM (Renal cell carcinoma; [7]): 91 ± 5%
inhibition at 1 µM (Renal cell carcinoma; [8]): 34 ± 2%
inhibition at 1 µM (Renal cell carcinoma; [9]): 55 ± 5%
inhibition at 1 µM (Renal cell carcinoma; [10]): 91 ± 4%
inhibition at 100 µM ([3]; Cases with Kras mutated): 25 ± 4%
inhibition at 100 µM [3, 11]: 95 ± 6%
inhibition at 100 µM ([4]; Cases with Kras mutated): 26 ± 4%
inhibition at 100 µM [4, 11]: 96 ± 5%
inhibition at 1 µM (Myeloma; [5]): 16 ± 3%
inhibition at 1 µM (Myeloma; [6]): 47 ± 4%
inhibition at 1 µM (Myeloma; [7]): 94 ± 5%
inhibition at 1 µM (Myeloma; [8]): 35 ± 3%
inhibition at 1 µM (Myeloma; [9]): 55 ± 3%
inhibition at 1 µM (Myeloma; [10]): 93 ± 3%
